Consider 20 compounds from patent publication US20170022171A1, “2,5-DISUBSTITUTED CYCLOPENTANECARBOXYLIC ACIDS AND THEIR USE” (Bayer Pharma Aktiengesellschaft, priority 2014, published 2017).

T1 sequence (P39900 106-470): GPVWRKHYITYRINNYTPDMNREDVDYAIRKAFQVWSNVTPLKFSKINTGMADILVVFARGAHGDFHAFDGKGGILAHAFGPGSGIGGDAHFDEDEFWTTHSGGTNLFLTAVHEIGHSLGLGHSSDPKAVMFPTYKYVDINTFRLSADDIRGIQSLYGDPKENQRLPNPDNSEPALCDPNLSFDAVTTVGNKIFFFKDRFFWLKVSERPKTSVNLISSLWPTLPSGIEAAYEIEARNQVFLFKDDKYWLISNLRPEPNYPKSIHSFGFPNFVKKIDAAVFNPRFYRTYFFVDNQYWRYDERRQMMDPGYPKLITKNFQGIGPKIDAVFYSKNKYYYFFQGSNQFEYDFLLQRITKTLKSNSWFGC

The first series concerns the target T1, human macrophage elastase (HME/hMMP-12) (Homo sapiens, UniProt P39900).
T1 construct: 0.5 nM HME; purchased R&D Systems 917-MP
Kind of series: In vitro HME inhibition test (standard or high-sensitivity). To be noted: in some cases mean values. Type of series: biochemical. The method, boiled down: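 Fluorogenic assay: 0.5 nM autoactivated HME with 5 µM Mca-Pro-Leu-Gly-Leu-Glu-Glu-Ala-Dap(Dnp)-NH2 in HEPES pH 7.4 buffer (NaCl, CaCl2, ZnCl2, EDTA, Brij), 2 h at 37 °C; ex 323/em 393 nm. IC50 from fluorescence versus concentration. High-sensitivity format: ~0.05 nM enzyme, ~16 h incubation.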
Broadly, the IC50 is the point on the concentration scale where inhibition reaches its midpoint. Read a high IC50 as a need for much substance. On to `CC(C)CCOc1ccc(C(=O)[C@@H]2CC[C@H](Cn3nnc4ccc(C(F)(F)F)cc4c3=O)[C@H]2C(=O)O)cc1` (single isomer, unassigned) [Example 61, (+)-(1RS,2RS,5SR)-2-[4-(3-Methylbutoxy)benzoyl]-5-{[4-oxo-6-(trifluoromethyl)-1,2,3-benzotriazin-3(4H)-yl]methyl}cyclopentanecarboxylic acid], for which the IC50 stood at 0.032 nM. The same measure, in the same setting: next, `Cc1ccc2nnn(C[C@H]3CC[C@@H](C(=O)c4ccc(OCc5ccccc5)cc4)[C@@H]3C(=O)O)c(=O)c2c1` (single isomer, unassigned) [Example 93, (−)-(1RS,2RS,5SR)-2-[4-(Benzyloxy)benzoyl]-5-[(6-methyl-4-oxo-1,2,3-benzotriazin-3(4H)-yl)methyl]cyclopentanecarboxylic acid]: 190 nM; `Cc1ccc2nnn(C[C@H]3CC[C@@H](C(=O)c4ccc(OCC5CCCCC5)cc4)[C@@H]3C(=O)O)c(=O)c2c1` (single isomer, unassigned) [Example 118, (−)-(1RS,2RS,5SR)-2-[4-(Cyclohexylmethoxy)benzoyl]-5-[(6-methyl-4-oxo-1,2,3-benzotriazin-3(4H)-yl)methyl]cyclopentanecarboxylic acid]: 150 nM; `O=C(O)[C@@H]1[C@@H](Cn2nnc3ccc(C(F)(F)F)cc3c2=O)CC[C@H]1C(=O)c1ccc(OCc2ccc(F)cc2)cc1` (single isomer, unassigned) [Example 14, (−)-(1RS,2RS,5SR)-2-{4-[(4-Fluorobenzyl)oxy]benzoyl}-5-{[4-oxo-6-(trifluoromethyl)-1,2,3-benzotriazin-3(4H)-yl]methyl}cyclopentanecarboxylic acid]: 10 nM. Consider `O=C(O)[C@@H]1[C@@H](Cn2nnc3ccc(C(F)(F)F)cc3c2=O)CC[C@H]1C(=O)c1ccc(OCC2CCCC2)cc1` (single isomer, unassigned) [Example 45, (−)-(1RS,2RS,5SR)-2-[4-(Cyclopentylmethoxy)benzoyl]-5-{[4-oxo-6-(trifluoromethyl)-1,2,3-benzotriazin-3(4H)-yl]methyl}cyclopentanecarboxylic acid], for which inhibition was half-maximal at 4.1 nM (IC50). In turn, `O=C(O)[C@@H]1[C@@H](Cn2nnc3ccc(C(F)(F)F)cc3c2=O)CC[C@H]1C(=O)c1ccc(OCC2CCC2)cc1` (single isomer, unassigned) [Example 48, (−)-(1RS,2RS,5SR)-2-[4-(Cyclobutylmethoxy)benzoyl]-5-{[4-oxo-6-(trifluoromethyl)-1,2,3-benzotriazin-3(4H)-yl]methyl}cyclopentanecarboxylic acid] showed a half-inhibitory concentration (IC50) of 290 nM.

The compound `O=C(O)[C@@H]1[C@@H](Cn2nnc3ccc(C(F)(F)F)cc3c2=O)CC[C@H]1C(=O)c1ccc(OCc2cccc(Cl)c2)cc1` (single isomer, unassigned) [Example 22, (−)-(1RS,2RS,5SR)-2-{4-[(3-Chlorobenzyl)oxy]benzoyl}-5-{[4-oxo-6-(trifluoromethyl)-1,2,3-benzotriazin-3(4H)-yl]methyl}cyclopentanecarboxylic acid] registered a half-maximal inhibitory concentration (IC50) of 170 nM. The compound `CCCCCOc1ccc(C(=O)[C@@H]2CC[C@H](Cn3nnc4ccc(C)cc4c3=O)[C@H]2C(=O)O)cc1` (single isomer, unassigned) [Example 124, (+)-(1RS,2SR,5RS)-2-[(6-Methyl-4-oxo-1,2,3-benzotriazin-3(4H)-yl)methyl]-5-[4-(pentyloxy)benzoyl]cyclopentanecarboxylic acid] registered a concentration for half-maximal inhibition (IC50) of 0.062 nM. Regarding `Cc1cccc(COc2ccc(C(=O)[C@@H]3CC[C@H](Cn4nnc5ccc(C)cc5c4=O)[C@H]3C(=O)O)cc2)c1` (single isomer, unassigned) [Example 99, (−)-(1RS,2RS,5SR)-2-{4-[(3-Methylbenzyl)oxy]benzoyl}-5-[(6-methyl-4-oxo-1,2,3-benzotriazin-3(4H)-yl)methyl]cyclopentanecarboxylic acid], it took 210 nM to reach half-maximal inhibition (IC50). With `CCCOc1ccc(C(=O)[C@H]2CC[C@@H](Cn3nnc4ccc(C(F)(F)F)cc4c3=O)[C@@H]2C(=O)O)cc1` (racemic) [Example 69, (+/−)-(1RS,2SR,5RS)-2-{[4-Oxo-6-(trifluoromethyl)-1,2,3-benzotriazin-3(4H)-yl]methyl}-5-(4-propoxybenzoyl)cyclopentanecarboxylic acid], the IC50 turned out to be 0.094 nM. With `O=C(O)[C@@H]1[C@@H](Cn2nnc3ccc(C(F)(F)F)cc3c2=O)CC[C@H]1C(=O)c1ccc(OCCC2CCCC2)cc1` (single isomer, unassigned) [Example 54, (−)-(1RS,2RS,5SR)-2-[4-(2-Cyclopentylethoxy)benzoyl]-5-{[4-oxo-6-(trifluoromethyl)-1,2,3-benzotriazin-3(4H)-yl]methyl}cyclopentanecarboxylic acid], the IC50 came to 22 nM. Compound `CCCCCCOc1ccc(C(=O)[C@@H]2CC[C@H](Cn3nnc4ccc(C(F)(F)F)cc4c3=O)[C@H]2C(=O)O)cc1` (single isomer, unassigned) [Example 59, (−)-(1RS,2RS,5SR)-2-[4-(Hexyloxy)benzoyl]-5-{[4-oxo-6-(trifluoromethyl)-1,2,3-benzotriazin-3(4H)-yl]methyl}cyclopentanecarboxylic acid] yielded an IC50 of 4.2 nM.

For the compound `CCCCCCOc1ccc(C(=O)[C@@H]2CC[C@H](Cn3nnc4ccc(C)cc4c3=O)[C@H]2C(=O)O)cc1` (single isomer, unassigned) [Example 122, (−)-(1RS,2RS,5SR)-2-[4-(Hexyloxy)benzoyl]-5-[(6-methyl-4-oxo-1,2,3-benzotriazin-3(4H)-yl)methyl]cyclopentanecarboxylic acid], half-maximal inhibition (IC50) required 190 nM. Compound `CCCCCOc1ccc(C(=O)[C@H]2CC[C@@H](Cn3nnc4ccccc4c3=O)[C@@H]2C(=O)O)cc1` (racemic) [Example 7, (+/−)-(1RS,2SR,5RS)-2-[(4-Oxo-1,2,3-benzotriazin-3(4H)-yl)methyl]-5-[4-(pentyloxy)benzoyl]cyclopentanecarboxylic acid] showed an IC50 of 0.26 nM. “(−)-(1RS,2SR,5RS)-2-{[4-Oxo-6-(trifluoromethyl)-1,2,3-benzotriazin-3(4H)-yl]methyl}-5-{4-[(2-phenylethy)sulphanyl]benzoyl}cyclopentanecarboxylic acid [Example 84]” yielded an IC50 of 33 nM. For `O=C(O)[C@H]1[C@H](Cn2nnc3ccc(C(F)(F)F)cc3c2=O)CC[C@@H]1C(=O)c1ccc(SCC2CCCCC2)cc1` (racemic) [Example 85], the 50% inhibitory concentration (IC50) stood at 0.22 nM. Same read-out and setting: as for `Cc1ccc2nnn(C[C@H]3CC[C@@H](C(=O)c4ccc(OCCc5ccccc5)cc4)[C@@H]3C(=O)O)c(=O)c2c1` (single isomer, unassigned) [Example 114, (−)-(1RS,2SR,5RS)-2-[(6-Methyl-4-oxo-1,2,3-benzotriazin-3(4H)-yl)methyl]-5-[4-(2-phenylethoxy)benzoyl]cyclopentanecarboxylic acid], the figure is 110 nM. As for `O=C(O)[C@H]1[C@H](Cn2nnc3ccc(C(F)(F)F)cc3c2=O)CC[C@@H]1C(=O)c1ccc(OCc2cccc(N3CCOC3=O)c2)cc1` (racemic) [Example 33, (+/−)-(1RS,2RS,5SR)-2-(4-{[3-(2-Oxo-1,3-oxazolidin-3-yl)benzyl]oxy}benzoyl)-5-{[4-oxo-6-(trifluoromethyl)-1,2,3-benzotriazin-3 (4H)-yl]methyl}cyclopentanecarboxylic acid], the 50% inhibitory concentration (IC50) was found to be 0.13 nM.

Another series deals with rat hepatocytes. Kind of series: Hepatocyte assay for determination of metabolic stability. Type of series: in vitro ADME. The following applies: after incubation with rat hepatocytes. Here is the method: The metabolic stability of test compounds towards hepatocytes is determined by incubating the compounds at low concentrations (preferably below or around 1 μM) and at low cell counts (preferably at 1*10^6 cells/ml) in order to ensure maximum linearity of kinetic conditions in the experiment. Seven samples from the incubation solution are taken for the LC-MS analysis within a fixed time pattern, in order to determine the half-life (i.e. the degradation) of the particular compound. This half life is used to calculate various “Clearance” parameters (CL) and “Fmax” values (see below).
The CL and Fmax values are a measure of the phase 1 and phase 2 metabolism of the compounds in the hepatocytes. In order to minimize the influence of the organic solvent on the enzymes in the incubation batches, the concentration thereof is generally limited to 1% (acetonitrile) or 0.1% (DMSO).
For all species and breeds, a hepatocyte cell count in the liver of 1.1*10^8 cells/g of liver is expected.
The parameters calculated and the meanings thereof are: • Fmax well-stirred [%] maximum possible bioavailability after oral administration • Calculation: (1−CLblood well-stirred/QH)*100 • CLblood well-stirred [L/(h*kg)] calculated blood clearance (well-stirred model) • Calculation: (QH*CL′intrinsic)/(QH+CL′intrinsic) • CL′intrinsic[ml/(min*kg)] maximum ability of the liver (of the hepatocytes) to metabolize a compound (assuming that the liver blood flow is not rate-limiting) • Calculation: CL′intrinsic, apparent*species-specific hepatocyte count [1.1*10^8/g liver]*species-specific liver weight [g/kg] • CL′intrinsic, apparent[ml/(min*mg)] normalizes the elimination constant by dividing it by the hepatocyte cell count x used (x*10^6/ml) • Calculation: ke1[1/min]/(cell count [x*10^6]/incubation volume [ml]) • (QH=species-specific liver blood flow).
Regarding `Cc1ccc2nnn(C[C@H]3CC[C@@H](C(=O)c4ccc(OCc5cccc(Cl)c5)cc4)[C@@H]3C(=O)O)c(=O)c2c1` (racemic) [Example 104, (+)-(1RS,2RS,5SR)-2-{4-[(3-Chlorobenzyl)oxy]benzoyl}-5-[(6-methyl-4-oxo-1,2,3-benzotriazin-3(4H)-yl)methyl]cyclopentanecarboxylic acid], the “CLblood (calculated blood clearance, well-stirred)” value is 16.5 mL/min/kg and the “Fmax (maximum possible bioavailability after oral administration, well-stirred)” value came out at 76.3%.

As for `Cc1ccc2nnn(C[C@H]3CC[C@@H](C(=O)c4ccc(OCc5ccccc5)cc4)[C@@H]3C(=O)O)c(=O)c2c1` (racemic) [Example 92, (+)-(1RS,2RS,5SR)-2-[4-(Benzyloxy)benzoyl]-5-[(6-methyl-4-oxo-1,2,3-benzotriazin-3(4H)-yl)methyl]cyclopentanecarboxylic acid], the “CLblood (calculated blood clearance, well-stirred)” value is 16.8 mL/min/kg and the “Fmax (maximum possible bioavailability after oral administration, well-stirred)” value was 76.1%.
